This passage reports IC50 results from ChEMBL document CHEMBL5052842, “Pharmaceutical compounds and their use as inhibitors of ubiquitin specific protease 19 (usp19)” (2020).

The test concerns the target T1, Ubiquitin carboxyl-terminal hydrolase 19 (Homo sapiens, UniProt O94966).
T1 sequence (O94966 whole entry): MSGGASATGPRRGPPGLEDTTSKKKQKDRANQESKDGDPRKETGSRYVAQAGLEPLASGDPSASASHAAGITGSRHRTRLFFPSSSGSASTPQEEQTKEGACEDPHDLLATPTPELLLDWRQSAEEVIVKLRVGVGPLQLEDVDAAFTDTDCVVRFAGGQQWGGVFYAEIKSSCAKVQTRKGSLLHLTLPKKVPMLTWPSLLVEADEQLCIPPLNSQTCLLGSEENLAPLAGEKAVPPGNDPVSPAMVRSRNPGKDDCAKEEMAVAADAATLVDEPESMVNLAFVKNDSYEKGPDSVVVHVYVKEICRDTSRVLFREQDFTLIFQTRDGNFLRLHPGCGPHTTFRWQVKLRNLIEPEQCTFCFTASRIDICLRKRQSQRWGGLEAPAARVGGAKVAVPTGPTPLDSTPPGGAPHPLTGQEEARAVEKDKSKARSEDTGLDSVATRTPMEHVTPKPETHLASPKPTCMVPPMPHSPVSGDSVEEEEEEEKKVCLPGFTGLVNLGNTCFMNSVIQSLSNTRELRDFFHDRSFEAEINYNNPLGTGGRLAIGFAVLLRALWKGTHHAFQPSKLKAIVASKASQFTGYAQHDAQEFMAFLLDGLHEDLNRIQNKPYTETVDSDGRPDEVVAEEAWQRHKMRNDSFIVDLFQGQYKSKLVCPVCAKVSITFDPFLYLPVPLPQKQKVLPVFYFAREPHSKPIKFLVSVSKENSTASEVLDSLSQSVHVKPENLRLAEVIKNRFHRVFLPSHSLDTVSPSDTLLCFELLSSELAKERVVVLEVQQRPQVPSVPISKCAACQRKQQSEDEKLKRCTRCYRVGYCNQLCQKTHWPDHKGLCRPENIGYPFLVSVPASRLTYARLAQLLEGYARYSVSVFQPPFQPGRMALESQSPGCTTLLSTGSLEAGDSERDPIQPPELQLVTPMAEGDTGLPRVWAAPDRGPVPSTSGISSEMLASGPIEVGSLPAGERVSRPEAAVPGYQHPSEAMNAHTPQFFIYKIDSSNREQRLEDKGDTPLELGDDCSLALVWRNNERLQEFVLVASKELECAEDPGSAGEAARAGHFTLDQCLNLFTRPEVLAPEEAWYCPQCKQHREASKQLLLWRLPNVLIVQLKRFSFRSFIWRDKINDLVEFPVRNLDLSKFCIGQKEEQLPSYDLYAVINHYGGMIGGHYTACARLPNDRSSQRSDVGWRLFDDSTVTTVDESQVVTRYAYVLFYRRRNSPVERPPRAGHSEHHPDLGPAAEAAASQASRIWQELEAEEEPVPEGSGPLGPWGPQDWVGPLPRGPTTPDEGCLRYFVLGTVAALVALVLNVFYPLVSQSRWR
Briefly: Inhibition of C-terminal His6-tagged recombinant human USP19 using iso-peptide ubiquitin-Lys-TAMRA as substrate incubated for 30 mins and measured after 90 mins by fluorescent polarization assay.

On to `Cn1cc(-c2cc(=O)n(C[C@]3(O)CCN(C(=O)N4CCNC[C@H]4c4ccccc4)CC34CCCC4)cn2)cn1`, for which the 50% inhibitory concentration (IC50) is below 500 nM. Next, `Cn1cc(-c2ccn(C[C@]3(O)CCN(C(=O)N4CCNC[C@H]4c4ccccc4)CC34CCCC4)c(=O)c2)cn1`: below 500 nM; `O=C(N1CCC(O)(Cn2cc(F)c(-c3ccccc3)cc2=O)C2(CCCC2)C1)N1CCNC[C@H]1c1ccccc1` (stereo partly specified): below 500 nM; `O=C(NCc1ccccc1)N1CCC(O)(Cn2cnc(-c3ccccc3)cc2=O)C2(CCCC2)C1` (stereo unspecified): below 500 nM. Next, `O=C(N1CC[C@@](O)(Cn2ccc(-c3ccccc3)cc2=O)C2(CCCC2)C1)N1CCNC[C@H]1c1cc(F)ccc1F`: below 500 nM.

For the compound `O=C(N[C@H](c1ccccc1)C(F)(F)F)N1CC[C@@](O)(Cn2cnc(-c3ccccc3)cc2=O)C2(CCCC2)C1`, the IC50 is below 500 nM. On to `O=C(N1CC[C@@](O)(Cn2cnc(N3CC(F)(F)C3)cc2=O)C2(CCCC2)C1)N1CCNC[C@H]1c1ccccc1`, for which the half-inhibitory concentration (IC50) is below 500 nM. With `CSc1ncc2c(=O)n(C[C@]3(O)CCN(C(=O)N4CCNC[C@H]4c4ccccc4)CC34CCCC4)ccc2n1`, the IC50 was below 500 nM. Next, `O=C(N1CC[C@@](O)(Cn2cnc(-c3ccc(Cl)cc3)cc2=O)C2(CCCC2)C1)N1CCNC[C@H]1c1ccccc1`: below 500 nM; `O=C(N1CC[C@@](O)(Cn2cnc(-c3ccccc3)cc2=O)C2(CCCC2)C1)N1CCNCC1c1ccccc1F` (stereo partly specified): below 500 nM; `C[C@H](CC1CCCCC1)C(=O)N1CCC(O)(Cn2cc([S+](C)[O-])c(Cl)cc2=O)C2(CCCC2)C1` (stereo partly specified): below 500 nM.

In the case of `C[C@H](CC1CCCCC1)C(=O)N1CCC(O)(Cn2cc(N=S(C)(C)=O)c(-c3ccccc3)cc2=O)C2(CCCC2)C1` (stereo partly specified), the IC50 was below 500 nM. Next, `O=C(N1CC[C@@](O)(Cn2cnc(-c3ccccc3C(F)F)cc2=O)C2(CCCC2)C1)N1CCNC[C@H]1c1ccccc1`: below 500 nM; `Cc1cccc(-c2cc(=O)n(C[C@]3(O)CCN(C(=O)N4CCNC[C@H]4c4ccccc4)CC34CCCC4)cn2)c1`: below 500 nM; `O=C(N1CC[C@@](O)(Cn2cnc(C3CC3)cc2=O)C2(CCCC2)C1)N1CCNC[C@H]1c1cccc(F)c1`: below 500 nM. With `O=C(N1CC[C@@](O)(Cn2cnc(N3CCCC3)cc2=O)C2(CCCC2)C1)N1CCNC[C@H]1c1ccccc1`, the IC50 was below 500 nM. Consider `CSc1cn(CC2(O)CCN(C(=O)N3CCNC[C@H]3c3ccccc3)CC23CCCC3)c(=O)cc1-c1ccccc1` (stereo partly specified), for which the IC50 is below 500 nM. With `C[C@H](CC(F)(F)F)C(=O)N1CCC(O)(CN2CCN(c3ccccc3)CC2=O)C2(CCCC2)C1` (stereo partly specified) the figure was below 500 nM; with `C[C@H](CC1CCCCC1)C(=O)N1CCC(O)(CN2CCN(C(=O)OC(C)(C)C)CC2=O)C2(CCCC2)C1` (stereo partly specified), below 500 nM. Turning to `Cc1cccc(-c2cc(=O)n(C[C@]3(O)CCN(C(=O)N4CCNC[C@H]4c4cc(F)ccc4F)CC34CCCC4)cn2)c1`, the IC50 is below 500 nM. With `O=C(N1CCC(O)(Cn2cnc3ccc(F)cc3c2=O)C2(CCCC2)C1)N1CCNC[C@H]1c1ccccc1` (stereo partly specified) the figure was below 500 nM. For the compound `O=C(N1CC[C@@](O)(Cn2cnc(-c3ccccc3)cc2=O)C2(CCCC2)C1)N1CCNC[C@H]1c1ccccc1`, the IC50 is below 500 nM. For the compound `C[C@H](CC(F)(F)F)C(=O)N1CCC(O)(Cn2cc(N=S(C)(C)=O)c(-c3ccccc3)cc2=O)C2(CCCC2)C1` (stereo partly specified), the IC50 was below 500 nM. As to `O=C(N1CCC(O)(Cn2cnc(-c3ccccc3)cc2=O)C2(CCC2)C1)N1CCOC[C@H]1c1ccccc1` (stereo partly specified), the IC50 was below 500 nM. With `O=C(N1CC[C@@](O)(Cn2cnc(-c3ccccc3OC(F)(F)F)cc2=O)C2(CCCC2)C1)N1CCNC[C@H]1c1ccccc1`, the IC50 is below 500 nM.

Consider `O=C(N1CC[C@@](O)(Cn2cnc(N3CC4CC4C3)cc2=O)C2(CCCC2)C1)N1CCNC[C@H]1c1ccccc1` (stereo partly specified), for which the IC50 is below 500 nM.

For `O=C(N1CC[C@@](O)(Cn2cnc(-c3ccccc3)cc2=O)C2(CCCC2)C1)N1CCNCC1c1cc(F)cc(F)c1` (stereo partly specified), the half-maximal inhibitory concentration (IC50) is below 500 nM. Regarding `O=C(N1CC[C@@](O)(Cn2cnc(C3CC3)cc2=O)C2(CCCC2)C1)N1CCNC[C@H]1c1ccccc1`, the IC50 was below 500 nM. Next, `O=C(N1CC[C@@](O)(Cn2cnc(Cl)cc2=O)C2(CCCC2)C1)N1CCOC[C@H]1c1ccc(F)cc1`: below 500 nM; `CS(=N)(=O)c1cn(CC2(O)CCN(C(=O)N3CCNC[C@H]3c3ccccc3)CC23CCCC3)c(=O)cc1-c1ccccc1` (stereo partly specified): below 500 nM; `CSc1ncc2c(=O)n(CC3(O)CCN(C(=O)[C@H](C)CC4CCCCC4)CC34CCCC4)cnc2n1` (stereo partly specified): below 500 nM. Next, `Cn1nccc1-c1ccn(C[C@]2(O)CCN(C(=O)N3CCNC[C@H]3c3ccccc3)CC23CCCC3)c(=O)c1`: below 500 nM.

Turning to `C[C@H](CC1CCCCC1)C(=O)N1CCC(O)(CN2CCN(c3ccccc3)CC2=O)C2(CCCC2)C1` (stereo partly specified), the concentration for half-maximal inhibition (IC50) is below 500 nM. On to `CN(C)c1cc(=O)n(C[C@]2(O)CCN(C(=O)N3CCOC[C@H]3c3ccccc3)CC23CCCC3)cn1`, for which the concentration for half-maximal inhibition (IC50) is below 500 nM. For `O=C(N1CC[C@@](O)(Cn2cnc(-c3ccccc3)cc2=O)C2(CCCC2)C1)N1CCNC[C@H]1c1cccc(F)c1F`, the IC50 was below 500 nM. With `O=C(N1CC[C@@](O)(Cn2cnc(-c3cccc(F)c3)cc2=O)C2(CCCC2)C1)N1CCNC[C@H]1c1cc(F)ccc1F`, the half-inhibitory concentration (IC50) was below 500 nM. Next, `O=C(N1CCC(O)(Cn2cnc(-c3ccccc3)cc2=O)C2(CCCCC2)C1)N1CCOC[C@H]1c1ccccc1` (stereo partly specified): below 500 nM; `O=C(N1CC[C@@](O)(Cn2ccc(N3CCCC3)cc2=O)C2(CCCC2)C1)N1CCNC[C@H]1c1ccccc1`: below 500 nM; `C[C@H](CC1CCCCC1)C(=O)N1CCC(O)(Cn2cc(Cl)ncc2=O)C2(CCCC2)C1` (stereo partly specified): below 500 nM. With `Cn1nccc1-c1cc(=O)n(C[C@]2(O)CCN(C(=O)N3CCNC[C@H]3c3ccccc3)CC23CCCC3)cn1` the figure was below 500 nM. Regarding `N[C@@H]1CCN(C(=O)N2CC[C@@](O)(Cn3cnc(-c4ccccc4)cc3=O)C3(CCCC3)C2)[C@H](c2ccccc2)C1`, the concentration for half-maximal inhibition (IC50) is below 500 nM. For `Cc1ccccc1-c1cc(=O)n(C[C@]2(O)CCN(C(=O)N3CCNC[C@H]3c3ccccc3)CC23CCCC3)cn1`, the IC50 is below 500 nM. With `O=C(N1CC[C@@](O)(Cn2cnc(N3CCCC(F)(F)C3)cc2=O)C2(CCCC2)C1)N1CCNC[C@H]1c1ccccc1` the figure was below 500 nM; with `N[C@H]1CCN(C(=O)N2CC[C@@](O)(Cn3cnc(-c4ccccc4)cc3=O)C3(CCCC3)C2)[C@H](c2ccccc2)C1`, below 500 nM; with `C[C@H](CC1CCCCC1)C(=O)N1CCC(O)(Cn2cc(S(C)(=O)=O)c(-c3ccccc3)cc2=O)C2(CCCC2)C1` (stereo partly specified), below 500 nM. Turning to `O=C(N1CC[C@@](O)(Cn2cnc(-c3ccccc3F)cc2=O)C2(CCCC2)C1)N1CCNC[C@H]1c1cccc(F)c1`, the half-inhibitory concentration (IC50) is below 500 nM.

`O=C(N1CC[C@@](O)(Cn2cnc(C3CC3)cc2=O)C2(CCCC2)C1)N1CCOC[C@H]1c1ccccc1`: the half-inhibitory concentration (IC50) was below 500 nM. Next, `O=C(N1CCC(O)(Cn2cnc3cc(F)c(F)cc3c2=O)C2(CCCC2)C1)N1CCOC[C@H]1c1ccccc1` (stereo partly specified): below 500 nM; `C[C@H](CC1CCCCC1)C(=O)N1CCC(O)(Cn2cnc3cc(F)c(F)cc3c2=O)C2(CCCC2)C1` (stereo partly specified): below 500 nM. With `COc1ccccc1-c1cc(=O)n(C[C@]2(O)CCN(C(=O)N3CCNC[C@H]3c3ccccc3)CC23CCCC3)cn1` the figure was below 500 nM; with `O=C(N1CC[C@@](O)(Cn2cnc(-c3ccsc3)cc2=O)C2(CCCC2)C1)N1CCNC[C@H]1c1ccccc1`, below 500 nM; with `CC1(C)CN(C(=O)N2CCOC[C@H]2c2ccccc2)CC[C@@]1(O)Cn1cnc(-c2ccccc2)cc1=O`, below 500 nM. Turning to `COC(=O)c1cn(CC2(O)CCN(C(=O)[C@H](C)CC3CCCCC3)CC23CCCC3)c(=O)cn1` (stereo partly specified), the IC50 was below 500 nM. Regarding `O=C(N1CC[C@@](O)(Cn2cnc(-c3cccc(F)c3F)cc2=O)C2(CCCC2)C1)N1CCNC[C@H]1c1ccccc1`, the 50% inhibitory concentration (IC50) was below 500 nM.

On to `CNc1cc(=O)n(C[C@]2(O)CCN(C(=O)N3CCNC[C@H]3c3ccccc3)CC23CCCC3)cn1`, for which the half-inhibitory concentration (IC50) is below 500 nM. As for `CS(=N)(=O)c1cn(CC2(O)CCN(C(=O)N3CCOC[C@H]3c3ccccc3)CC23CCCC3)c(=O)cc1-c1ccccc1` (stereo partly specified), the IC50 is below 500 nM.
